In assay [1] the target is T1, Melatonin receptor type 1A (Homo sapiens, UniProt P48039). Briefly: Displacement of 2-[125I]-iodomelatonin from human MT1 receptor expressed in HEK293 cells. Format: cell-based.
For assay [2], the target named is T2, Melatonin receptor type 1B (Homo sapiens, UniProt P49286).
T2 sequence (P49286 whole entry): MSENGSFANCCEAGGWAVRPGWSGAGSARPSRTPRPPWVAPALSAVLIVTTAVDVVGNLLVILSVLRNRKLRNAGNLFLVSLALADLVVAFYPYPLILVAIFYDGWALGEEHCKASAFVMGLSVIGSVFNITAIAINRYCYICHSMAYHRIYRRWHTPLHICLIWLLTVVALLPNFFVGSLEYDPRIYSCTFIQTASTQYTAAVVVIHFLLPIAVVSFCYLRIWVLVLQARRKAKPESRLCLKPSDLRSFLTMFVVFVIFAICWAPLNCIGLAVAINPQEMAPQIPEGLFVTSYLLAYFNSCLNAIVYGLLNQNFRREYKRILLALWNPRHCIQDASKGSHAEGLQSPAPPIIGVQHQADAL
Nature of the assay: Displacement of 2-[125I]-iodomelatonin from human MT2 receptor expressed in HEK293 cells. The assay is classed as cell-based.

Assay [3] concerns the target T1, Melatonin receptor type 1A. Briefly: Agonist activity at human MT1 receptor expressed in CHO cells by [35S]GTPgamma binding assay. Format: functional, cell-based.
Assay [4] deals with T2, Melatonin receptor type 1B. Nature of the assay: Agonist activity at human MT2 receptor expressed in CHO cells by [35S]GTPgamma binding assay. Format: functional, cell-based.
For another assay, the species on record is Homo sapiens. Nature of the assay: Selectivity ratio of Ki for human MT1 receptor to Ki for human MT2 receptor.

Consider 15 molecules from ChEMBL document CHEMBL1759969 (Bioorg Med Chem Lett, 2011).

For orientation: Ki means a measure of affinity in units of concentration, obtained from inhibition or displacement. In general, EC50 refers to the midpoint of the concentration-response curve. Low values mean greater potency, high ones weaker potency.

T1 sequence (P48039 whole entry): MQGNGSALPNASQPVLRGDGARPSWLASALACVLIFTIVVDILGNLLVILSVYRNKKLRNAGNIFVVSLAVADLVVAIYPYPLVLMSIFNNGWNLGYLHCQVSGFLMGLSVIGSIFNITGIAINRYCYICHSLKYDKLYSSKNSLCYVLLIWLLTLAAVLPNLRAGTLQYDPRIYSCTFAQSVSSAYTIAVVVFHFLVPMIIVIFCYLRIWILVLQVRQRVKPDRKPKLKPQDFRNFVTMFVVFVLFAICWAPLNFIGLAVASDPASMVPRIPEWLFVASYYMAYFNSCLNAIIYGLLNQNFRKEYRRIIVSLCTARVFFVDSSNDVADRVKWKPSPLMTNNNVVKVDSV

For `COc1ccc2c3c(n(CCNC(C)=O)c2n1)CCCC3`, the Ki in assay [1] came out at 9 nM; in assay [2], 0.68 nM. Moreover, the EC50 is 16 nM in assay [3] and 1.3 nM in assay [4]. Also, in the assay listed under Homo sapiens, the Ratio Ki was 13.2.
For `CCC(=O)NCCn1ccc2ccc(OC)nc21` the same measures were 3.3 nM, 0.28 nM, 5.1 nM, 1.4 nM and 11.8.
For the molecule `COc1ccc2c(CN3CCN(c4cccc(Cl)c4)CC3)cn(CCNC(C)=O)c2n1`, the Ki in assay [1] stood at 1210 nM; in assay [2] it was 929 nM. The Ratio Ki in the assay listed under Homo sapiens stood at 1.3.
With `COc1ccc2ccn(CCNC(C)=O)c2n1`, the Ki was determined as 1.4 nM in assay [1] and 0.6 nM in assay [2]. Further, the EC50 in assay [3] came to 4 nM; in assay [4] it was 2.1 nM. Moreover, the Ratio Ki in the assay filed under Homo sapiens was determined as 2.3.
The like results for `COc1ccc2[nH]cc(CCNC(C)=O)c2n1` were, in that order, 0.2 nM, 0.3 nM, 12 nM, 1.1 nM and 0.7.
`COc1cnc2[nH]cc(CCNC(C)=O)c2c1` came in with a Ki in assay [2] of 117 nM. Moreover, in assay [4], the EC50 turned out to be 380 nM.
As for `CNCc1cn(CCNC(C)=O)c2nc(OC)ccc12`, the Ki in assay [1] amounted to 8300 nM; in assay [2], 1090 nM. Besides, in the assay filed under Homo sapiens, the Ratio Ki was found to be 7.6.
For `COc1ccc2c(I)cn(CCNC(C)=O)c2n1`, the Ki came out at 16 nM in assay [1] and 5 nM in assay [2]. The figures for the EC50 in assay [3] and in assay [4] were 32 nM and 11 nM, respectively. Moreover, in the assay listed under Homo sapiens, the Ratio Ki turned out to be 3.2.
Take `CCCC(=O)NCCn1ccc2ccc(OC)nc21`: the affinity in assay [2], expressed as Ki, was 0.3 nM. Further, the EC50 in assay [4] is 0.7 nM.
Regarding `COc1ccc2c(CN(C)Cc3ccccc3)cn(CCNC(C)=O)c2n1`, the Ki in assay [1] came to 10500 nM; in assay [2], 4010 nM. Also, in the assay listed under Homo sapiens, the Ratio Ki came out at 2.6.
For the molecule `COc1ccc2c(CN(C)C)cn(CCNC(C)=O)c2n1`, the Ki in assay [1] and in assay [2] was more than 10000 nM each time.
As to `COc1ccc2c(CN3CCC(C(=O)c4ccc(F)cc4)CC3)cn(CCNC(C)=O)c2n1`, the Ki in assay [1] worked out at 9490 nM; in assay [2] it was 7440 nM. In the assay filed under Homo sapiens, the Ratio Ki amounted to 1.3.
With `COc1ccc2c(C(=O)C(F)(F)F)cn(CCNC(C)=O)c2n1`, the values for the Ki in assay [1] and in assay [2] were 91 nM and 30 nM, respectively. The EC50 came to 93 nM in assay [3] and 10 nM in assay [4]. In addition, in the assay filed under Homo sapiens, the Ratio Ki was 3.
`COc1ccc2c(CN3CCCCC3)cn(CCNC(C)=O)c2n1`: the Ki in assay [1] came to 510 nM; in assay [2], 742 nM. Moreover, the Ratio Ki in the assay filed under Homo sapiens was 0.7.
The like results for `COc1ccc2c(CN3CCOCC3)cn(CCNC(C)=O)c2n1` were, in that order, more than 10000 nM, 550 nM and more than 20.
